For three compounds, IC50 results are on record in ChEMBL document CHEMBL1131782, “Synthesis, biological activity, and absolute stereochemical assignment of NPS 1392: a potent and stereoselective NMDA receptor antagonist” (Bioorg Med Chem Lett, 1999).

Test [1] addresses Glutamate NMDA receptor. Kind of test: Functional NMDA receptor antagonism expressed as inhibition of NMDA/glycine induced increase in cytosolic calcium in cultured rat cerebellar granule cells.
In test [2] the target is Glutamate NMDA receptor. Kind of test: Potency towards NMDA receptor measured as inhibition of (+)-[3-3H]MK-801 binding from synaptic plasma membrane obtained from rat cortex.

One may read the IC50 as the midpoint of a concentration-inhibition curve. Regarding `C[C@H](CN)C(c1cccc(F)c1)c1cccc(F)c1`, the IC50 on Glutamate NMDA receptor [1] came out at 384 nM; at Glutamate NMDA receptor [2], 2000 nM.

Take `C[C@@H](CN)C(c1cccc(F)c1)c1cccc(F)c1`: the figures for the IC50 on Glutamate NMDA receptor [1] and on Glutamate NMDA receptor [2] were 75 nM and 141 nM, respectively.

As for `NCCC(c1cccc(F)c1)c1cccc(F)c1`, the 50% inhibitory concentration (IC50) on Glutamate NMDA receptor [1] stood at 63 nM; at Glutamate NMDA receptor [2] it was 230 nM.
